Source: patent publication US12559496B2, “Imidazopyrimidines as modulators of IL-17” (Janssen Pharmaceutica NV, priority 2020, dated 2026)

What was measured:
[1] = test system: IL-17A-induced G-CSF production in human normal keratinocytes (NHK); test: NHK Assay: IL-17A-induced G-CSF production in human normal keratinocytes; format: cell-based; conditions: Homo sapiens, Keratinocyte, 24 h, IL-17A 5 ng/mL, 5% FBS, simple average if tested more than once
In short: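 Adult normal human keratinocytes treated 24 h at 37 °C with IL-17A (5 ng/mL final) pre-incubated 1 h at rt with titrated compound; 0.2% DMSO, 5% FBS. G-CSF in supernatant measured by HTRF against a standard curve to give IC50; viability checked by CellTiter-Glo.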

[2] = target: IL-17A(FLAG-Tagged): IL-17RA(His-Tagged) (Homo sapiens, UniProt Q16552, K93Q); test: IL-17A(FLAG-Tagged): IL-17RA(His-Tagged) Binding Disruption Eu-HTRF Assay; conditions: disruption of IL-17A/IL-17RA binding; simple average if tested more than once
In short: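 Compound (22-point 2-fold series) was preincubated 1 h at rt with FLAG-IL-17A, then His-IL-17RA, Eu-anti-FLAG and D2-anti-His were added in PBS/0.01% Triton X-100 with 200 mM KF for 2 h at rt. The ratio of 665 and 620 nm intensities versus concentration was fitted to one-site competition for IC50.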

[3] = seven of nine patients with moderate-to-severe HS, open-label pilot-trial (Prussick et al. 2019); cited from earlier work

Sequence of UniProt Q16552 (Q16552 with tags, fused parts or gaps K93Q): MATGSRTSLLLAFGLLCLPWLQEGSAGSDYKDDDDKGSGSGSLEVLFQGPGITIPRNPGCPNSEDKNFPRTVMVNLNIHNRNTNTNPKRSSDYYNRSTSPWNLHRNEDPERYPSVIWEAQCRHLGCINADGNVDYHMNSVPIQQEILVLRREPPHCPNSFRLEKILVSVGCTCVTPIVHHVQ

| Compound | IC50 [2] | IC50 [1] | patients achieving HiSCR [3] |
| --- | --- | --- | --- |
| O=C(CC1CC(F)(F)C1)N[C@H](c1ccn2cc([C@@H](NC(=O)c3conc3C3CC3)C3CCC(F)(F)CC3)nc2n1)C1CC1 [Example 27, 3-Cyclopropyl-N—((S)-(7-((S)-cyclopropyl(2-(3,3-difluorocyclobutyl)acetamido)methyl)imidazo[1,2-a]pyrimidin-2-yl)(4,4-difluorocyclohexyl)methyl)isoxazole-4-carboxamide] | 3.8 µM | 2.6 µM |  |
| O=C(CC1CC(F)(F)C1)N[C@H](c1ccn2cc([C@@H](NC(=O)c3ccnc(CC(F)(F)F)c3)C3CCC(F)(F)CC3)nc2n1)C1CC1 [Example 28, N—((S)-(7-((S)-Cyclopropyl(2-(3,3-difluorocyclobutyl)acetamido)methyl)imidazo[1,2-a]pyrimidin-2-yl)(4,4-difluorocyclohexyl)methyl)-2-(2,2,2-trifluoroethyl)isonicotinamide] | 5.4 µM | 1.2 µM |  |
| O=C(CC1CC(F)(F)C1)N[C@H](c1ccn2cc([C@@H](NC(=O)c3conc3CCC(F)(F)F)C3CCC(F)(F)CC3)nc2n1)C1CC1 [Example 29, N—((S)-(7-((S)-Cyclopropyl(2-(3,3-difluorocyclobutyl)acetamido)methyl)imidazo[1,2-a]pyrimidin-2-yl)(4,4-difluorocyclohexyl)methyl)-3-(3,3,3-trifluoropropyl)isoxazole-4-carboxamide] | 2.3 µM | 2.6 µM |  |
| O=C(CCC(F)(F)F)N[C@H](c1ccn2cc([C@@H](NC(=O)c3cnn(CC4CC4)n3)C3CCC(F)(F)CC3)nc2n1)C1CC1 [Example 31, N—((S)-(7-((S)-Cyclopropyl(4,4,4-trifluorobutanamido)methyl)imidazo[1,2-a]pyrimidin-2-yl)(4,4-difluorocyclohexyl)methyl)-2-(cyclopropylmethyl)-2H-1,2,3-triazole-4-carboxamide] | 3 µM | > 20 µM |  |
| O=C(CCC(F)(F)F)N[C@H](c1ccn2cc([C@@H](NC(=O)c3ncnn3CC3CC3)C3CCC(F)(F)CC3)nc2n1)C1CC1 [Example 33, N—((S)-(7-((S)-Cyclopropyl(4,4,4-trifluorobutanamido)methyl)imidazo[1,2-a]pyrimidin-2-yl)(4,4-difluorocyclohexyl)methyl)-1-(cyclopropylmethyl)-1H-1,2,4-triazole-5-carboxamide] | 8.7 µM | > 20 µM |  |
| CC(C)n1nccc1C(=O)N[C@H](c1nc2nc([C@H](NC(=O)CCC(F)(F)F)C3CC3)ccn2c1F)C1CCC(F)(F)CC1 [Example 35, N—((S)-(7-((R)-Cyclopropyl(4,4,4-trifluorobutanamido)methyl)-3-fluoroimidazo[1,2-a]pyrimidin-2-yl)(4,4-difluorocyclohexyl)methyl)-1-isopropyl-1H-pyrazole-5-carboxamide] | 0.81 µM | 0.95 µM |  |
| O=C(CCC(F)(F)F)N[C@H](c1ccn2cc([C@@H](NC(=O)c3conc3C3CC3)C3CCC(F)(F)CC3)nc2n1)C1CC1 [Example 37, 3-Cyclopropyl-N—((S)-(7-((S)-cyclopropyl(4,4,4-trifluorobutanamido)methyl)imidazo[1,2-a]pyrimidin-2-yl)(4,4-difluorocyclohexyl)methyl)isoxazole-4-carboxamide] | 1.4 µM | > 20 µM |  |
| secukinumab |  |  | 78% |

More lines, main results first:

| IC50 [2] | Compound | IC50 [1] | patients achieving HiSCR [3] |
| --- | --- | --- | --- |
| 0.13 µM | O=C(CC1CC(F)(F)C1)N[C@@H](c1ccn2cc([C@@H](NC(=O)c3conc3CCC(F)(F)F)C3CCC(F)(F)CC3)nc2n1)C1CC1 [Example 26, N—((S)-(7-((R)-Cyclopropyl(2-(3,3-difluorocyclobutyl)acetamido)methyl)imidazo[1,2-a]pyrimidin-2-yl)(4,4-difluorocyclohexyl)methyl)-3-(3,3,3-trifluoropropyl)isoxazole-4-carboxamide] | 0.11 µM |  |
| 0.11 µM | O=C(CCC(F)(F)F)N[C@@H](c1ccn2cc([C@@H](NC(=O)c3conc3CCC(F)(F)F)C3CCC(F)(F)CC3)nc2n1)C1CC1 [Example 30, N—((S)-(7-((R)-Cyclopropyl(4,4,4-trifluorobutanamido)methyl)imidazo[1,2-a]pyrimidin-2-yl)(4,4-difluorocyclohexyl)methyl)-3-(3,3,3-trifluoropropyl)isoxazole-4-carboxamide] | 0.074 µM |  |
| 0.17 µM | O=C(CCC(F)(F)F)N[C@@H](c1ccn2cc([C@@H](NC(=O)c3ncnn3CC3CC3)C3CCC(F)(F)CC3)nc2n1)C1CC1 [Example 32, N—((S)-(7-((R)-Cyclopropyl(4,4,4-trifluorobutanamido)methyl)imidazo[1,2-a]pyrimidin-2-yl)(4,4-difluorocyclohexyl)methyl)-1-(cyclopropylmethyl)-1H-1,2,4-triazole-5-carboxamide] | 0.52 µM |  |
| 0.24 µM | O=C(CCC(F)(F)F)N[C@@H](c1ccn2cc([C@@H](NC(=O)c3cnn(CC4CC4)n3)C3CCC(F)(F)CC3)nc2n1)C1CC1 [Example 34, N—((S)-(7-((R)-Cyclopropyl(4,4,4-trifluorobutanamido)methyl)imidazo[1,2-a]pyrimidin-2-yl)(4,4-difluorocyclohexyl)methyl)-2-(cyclopropylmethyl)-2H-1,2,3-triazole-4-carboxamide] | 0.58 µM |  |
| 0.22 µM | O=C(CCC(F)(F)F)N[C@@H](c1ccn2cc([C@@H](NC(=O)c3conc3C3CC3)C3CCC(F)(F)CC3)nc2n1)C1CC1 [Example 36, 3-Cyclopropyl-N—((S)-(7-((R)-cyclopropyl(4,4,4-trifluorobutanamido)methyl)imidazo[1,2-a]pyrimidin-2-yl)(4,4-difluorocyclohexyl)methyl)isoxazole-4-carboxamide] | 0.19 µM |  |
| 0.16 µM | O=C(CCC(F)(F)F)N[C@@H](c1ccn2cc([C@@H](NC(=O)c3ccnc(CC(F)(F)F)c3)C3CCC(F)(F)CC3)nc2n1)C1CC1 [Example 48, N—((S)-(7-((R)-Cyclopropyl(4,4,4-trifluorobutanamido)methyl)imidazo[1,2-a]pyrimidin-2-yl)(4,4-difluorocyclohexyl)methyl)-2-(2,2,2-trifluoroethyl)isonicotinamide] | 0.17 µM |  |
| 0.39 µM | Cc1nonc1C(=O)N[C@H](c1cn2ccc([C@H](NC(=O)CC34CC(F)(C3)C4)C3CC3)nc2n1)C1CCC(F)(F)CC1 [Example 59, N—((S)-(7-((R)-Cyclopropyl(2-(3-fluorobicyclo[1.1.1]pentan-1-yl)acetamido)methyl)imidazo[1,2-a]pyrimidin-2-yl)(4,4-difluorocyclohexyl)methyl)-4-methyl-1,2,5-oxadiazole-3-carboxamide] | 0.99 µM |  |
| 0.38 µM | Cc1nonc1C(=O)N[C@H](c1cn2ccc([C@H](NC(=O)C[C@H](C)C(F)F)C3CC3)nc2n1)C1CCC(F)(F)CC1 [Example 60, N—((S)-(7-((R)-Cyclopropyl((S)-4,4-difluoro-3-methylbutanamido)methyl)imidazo[1,2-a]pyrimidin-2-yl)(4,4-difluorocyclohexyl)methyl)-4-methyl-1,2,5-oxadiazole-3-carboxamide] | 0.76 µM |  |
| 0.46 µM | Cc1nonc1C(=O)N[C@H](c1cn2ccc([C@H](NC(=O)C[C@H]3C[C@H](F)C3)C3CC3)nc2n1)C1CCC(F)(F)CC1 [Example 61, N—((S)-(7-((R)-Cyclopropyl(2-((1r,3S)-3-fluorocyclobutyl)acetamido)methyl)imidazo[1,2-a]pyrimidin-2-yl)(4,4-difluorocyclohexyl)methyl)-4-methyl-1,2,5-oxadiazole-3-carboxamide] | 2.3 µM |  |
| 0.091 µM | O=C(CC1CC(F)(F)C1)N[C@@H](c1ccn2cc([C@@H](NC(=O)c3nonc3C3CC3)C3CCC(F)(F)CC3)nc2n1)C1CC1 [Example 62, 4-Cyclopropyl-N—((S)-(7-((R)-cyclopropyl(2-(3,3-difluorocyclobutyl)acetamido)methyl)imidazo[1,2-a]pyrimidin-2-yl)(4,4-difluorocyclohexyl)methyl)-1,2,5-oxadiazole-3-carboxamide] | 0.12 µM |  |
| 0.22 µM | O=C(CC1CC(F)(F)C1)N[C@@H](c1ccn2cc([C@@H](NC(=O)c3nocc3CC(F)(F)F)C3CCC(F)(F)CC3)nc2n1)C1CC1 [Example 63, N—((S)-(7-((R)-Cyclopropyl(2-(3,3-difluorocyclobutyl)acetamido)methyl)imidazo[1,2-a]pyrimidin-2-yl)(4,4-difluorocyclohexyl)methyl)-4-(2,2,2-trifluoroethyl)isoxazole-3-carboxamide] | 0.64 µM |  |
